Reference: PMC9785202, “Changes in Disposition of Ezetimibe and Its Active Metabolites Induced by Impaired Hepatic Function: The Influence of Enzyme and Transporter Activities” (Pharmaceutics, 2022)
Where two headings read alike, the source gives them in different places. Marks after values point to notes of the source that are not given here.

Legend:
OATP1B3 = biological target: T1, OATP1B3 (Homo sapiens, UniProt Q9NPD5); assay: Inhibition of OATP1B3-mediated uptake in OATP1B3-transfected HEK293 cells by bile acids and rifampicin
T1 sequence (Q9NPD5 1-702): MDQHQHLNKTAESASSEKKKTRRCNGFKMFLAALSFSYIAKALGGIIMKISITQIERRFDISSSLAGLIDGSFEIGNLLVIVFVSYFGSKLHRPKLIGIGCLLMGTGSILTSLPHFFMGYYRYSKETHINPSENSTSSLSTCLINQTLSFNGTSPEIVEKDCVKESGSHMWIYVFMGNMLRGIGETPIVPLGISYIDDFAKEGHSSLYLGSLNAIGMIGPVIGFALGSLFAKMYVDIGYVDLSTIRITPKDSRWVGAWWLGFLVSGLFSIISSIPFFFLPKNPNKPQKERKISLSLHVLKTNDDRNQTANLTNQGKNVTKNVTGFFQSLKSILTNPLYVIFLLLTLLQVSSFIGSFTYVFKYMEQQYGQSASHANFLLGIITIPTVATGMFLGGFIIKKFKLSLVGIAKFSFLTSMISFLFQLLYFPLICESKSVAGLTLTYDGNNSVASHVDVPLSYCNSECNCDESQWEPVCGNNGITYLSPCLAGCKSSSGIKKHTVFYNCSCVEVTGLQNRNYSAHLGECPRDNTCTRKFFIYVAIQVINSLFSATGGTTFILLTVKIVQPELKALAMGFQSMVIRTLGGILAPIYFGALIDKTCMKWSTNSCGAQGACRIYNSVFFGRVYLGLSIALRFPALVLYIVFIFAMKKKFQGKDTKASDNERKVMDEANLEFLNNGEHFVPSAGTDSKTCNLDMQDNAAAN

[1] = CCl4-induced hepatic failure rat model: liver index and serum ALT, AST, AKP; format: in vivo, Sprague–Dawley (SD) rats
Experimental: All animal studies were carried out according to the Guide for the Care and Use of Laboratory Animals of the Shanghai Institute of Materia Medica, Chinese Academy of Sciences. Male Sprague–Dawley (SD) rats weighing 180 to 220 g were randomized into two groups. The CCl4-induced model group was administered an intraperitoneal injection of CCl4 (20% in corn oil) at a dose of 2.5 mL/kg three times a week for 8 weeks. The control group was treated intraperitoneally with the same volume of corn oil at the same time intervals. Blood samples were collected and centrifuged at 11,600 g for 5 min to obtain serum samples for the determination of serum ALT, AST, and AKP.
Serum ALT, AST, and AKP were measured using the corresponding assay kits following the manufacturer’s instructions. Tissues fixed in 4% paraformaldehyde were embedded in paraffin, cut into slices with a 3 μm thickness, and stained with hematoxylin and eosin (H&E).

[2] = Pharmacokinetics after intravenous or oral administration of 10 mg/kg EZE to control and CCl4-induced rats; format: in vivo; conditions: for AUC(0-t) / Cmax / Tmax / half-life: Sprague-Dawley, rat, plasma, 10 mg/kg
Experimental: Animals were fasted for 12 h with free access to water before the experiments. EZE was administered orally (prepared in 0.5% carboxymethylcellulose sodium) or intravenously (dissolved in 10% dimethyl sulfoxide, 10% tween-80, and 80% sterile H2O) to CCl4-induced rats (n = 5) and control rats (n = 5) at 10 mg/kg. Blood samples were collected from the retro-orbital venous plexus before administration (0 h), at 5, 15, and 30 min, and at 1, 2, 4, 6, 8, 12, 24, and 48 h after administration in tubes containing EDTA-2K. Plasma samples were harvested by centrifugation at 11,600 g for 5 min at 4 °C and then stored at −80 °C until further analysis.
A 25.0 μL aliquot of each sample and 25.0 μL of internal standard (50.0 ng/mL EZE-d4) were mixed with 100 μL of acetonitrile. After the samples were vortexed and centrifugated at 2250 g for 15 min, the supernatants were used to measure EZE and its metabolites by LC-MS/MS.
WinNonlin version 6.1 (Pharsight Corp., Cary, NC, USA) was used to calculate the pharmacokinetic parameters in a non-compartmental model. Statistical comparisons between the two groups were evaluated using a Student’s two-tailed unpaired t-test or the nonparametric Mann–Whitney test in GraphPad Prism (version 8.0, GraphPad Software Inc, SanDiego, CA, USA). A value of p < 0.05 was considered significant. All data were presented as the mean ± S.D. (n ≥ 3).

[3] = for Autosampler stability (4°C, 24 h), RE / Post-extraction stability (room temperature 3 h), RE / Freeze-thaw stability (−20°C, three cycles), RE / Short-term stability (room temperature 3 h), RE: n = 6; for Freeze-thaw stability (−20°C, three cycles), RE / Short-term stability (room temperature 3 h), RE: rat plasma
Experimental: The instrument parameters were as follows: ion spray voltage, −4500 V; source temperature, 550 °C; nebulizer gas, 60 psi; heater gas, 60 psi; and curtain gas, 40 psi. […] Data were acquired and processed with the Analyst 1.6.3 software (Applied Biosystems). The standard curve ranges were 1.00 to 1000 ng/mL for EZE, 3.00 to 3000 ng/mL for EZE-Ph, and 1.00 to 1000 ng/mL for EZE-Hy in plasma.
Summary of the stability of ezetimibe and its metabolites in rat plasma (n = 6).

rat primary hepatocytes = assay: Inhibition of EZE-Ph uptake into rat primary hepatocytes by bile acids and rifampicin; conditions: inhibitor 200 µmol/L, 10 μM EZE-Ph, 10 min
Experimental: Rat primary hepatocytes were isolated from male SD rats as previously described [34]. Fresh rat hepatocytes (120,000 per well) were cultured in Williams’ E medium (containing 0.1 μM dexamethasone, 5% fetal bovine serum, 1% penicillin G/streptomycin, 1% GlutaMAX-I, and 1% insulin–transferrin–selenium) on collagen I-coated 48-well plates. Rat hepatocytes cultured for 4 h under a carbogen atmosphere were directly used for uptake assays.
The hepatocytes were rinsed three times with HBSS (37 °C) and equilibrated in HBSS for 10 min. […] After 10 min of incubation, cells were quickly washed three times with ice-cold HBSS and then lysed by the addition of 300 μL of purified water. The protein content was measured using the BCA protein assay kit. EZE and EZE-Ph were analyzed by LC-MS/MS.
The rates of substrate uptake were normalized using the protein contents of cell lysates.

[4] = substrate: O=C(O)C1OC(Oc2ccc([C@@H]3[C@@H](CC[C@H](O)c4ccc(F)cc4)C(=O)N3c3ccc(F)cc3)cc2)C(O)C(O)C1O; assay: Uptake of EZE-Ph into OATP1B1-transfected HEK293 cells; format: in vitro ADME, human; conditions: other: OATP1B1 HEK293, uptake time 5 min; 37.0 °C
Experimental: (§1) The kinetic parameters and the half inhibitory concentration (IC50) were calculated using GraphPad Prism. […] The intrinsic clearance (CLint) was calculated as CLint = Vmax/Km.

[5] = substrate: O=C(O)C1OC(Oc2ccc([C@@H]3[C@@H](CC[C@H](O)c4ccc(F)cc4)C(=O)N3c3ccc(F)cc3)cc2)C(O)C(O)C1O; assay: Uptake of EZE-Ph into OATP2B1-transfected HEK293 cells; format: in vitro ADME, human; conditions: other: OATP2B1 HEK293, uptake time 5 min; 37.0 °C
Experimental: as §1

[6] = CCl4-induced rats vs control rats
[7] = serum, CCl4-induced rats, n = 16
[8] = iv, i.v. 10 mg/kg EZE, CCl4-induced rats
[9] = iv, i.v. 10 mg/kg EZE, control rats
[10] = po, p.o. 10 mg/kg EZE, CCl4-induced rats
[11] = po, p.o. 10 mg/kg EZE, control rats
[12] = oral administration of 10 mg/kg EZE

Molecule: C[C@H](CCC(=O)O)[C@H]1CC[C@H]2[C@@H]3[C@H](O)C[C@@H]4C[C@H](O)CC[C@]4(C)[C@H]3C[C@H](O)[C@]12C [CA, cholic acid]
- IC50 (OATP1B3): 121 µM

Molecule: ClC(Cl)(Cl)Cl [CCl4, Carbon tetrachloride]
- serum AKP, fold higher than in control rats [1, 6]: 3.86 fold
- serum ALT, fold higher than in control rats [1, 6]: 8.62 fold
- serum AST, fold higher than in control rats [1, 6]: 5.76 fold
- Liver weight/body weight ([1]; CCl4-induced rats, 8 weeks of treatment, n = 16): 37.9 ± 5.9 ^c
- AKP [1, 7]: 9887 ± 1633 ^d U/L
- ALT [1, 7]: 112 ± 33 ^d U/L
- AST [1, 7]: 125 ± 34 ^d U/L

Molecule: C[C@H](CCC(=O)O)[C@H]1CC[C@H]2[C@@H]3[C@H](O)C[C@@H]4C[C@H](O)CC[C@]4(C)[C@H]3CC[C@]12C [CDCA, chenodeoxycholic acid]
- IC50 (OATP1B3): 8.92 µM

Molecule: O=C(O)[C@H]1O[C@@H](O[C@@H](CC[C@H]2C(=O)N(c3ccc(F)cc3)[C@@H]2c2ccc(O)cc2)c2ccc(F)cc2)[C@H](O)[C@@H](O)[C@@H]1O [EZE-Hy, ezetimibe hydroxy β-D-glucuronide]
- AUC(0-t) [2, 8]: 4250 ± 2050 ng·h/mL
- Cmax [2, 8]: 146 ± 42 ng/mL
- Tmax [2, 8]: 11.2 ± 7.6 h
- half-life [2, 8]: 15.3 ± 2.4 h
- AUC(0-t) [2, 9]: 992 ± 392 ng·h/mL
- Cmax [2, 9]: 36.9 ± 9.6 ng/mL
- Tmax [2, 9]: 16.8 ± 6.6 h
- half-life [2, 9]: 16.1 ± 7.6 h
- AUC(0-t) [2, 10]: 1170 ± 418 ng·h/mL
- Cmax [2, 10]: 38.1 ± 10.1 ng/mL
- Tmax [2, 10]: 14.4 ± 5.4 h
- AUC(0-t) [2, 11]: 463 ± 160 ng·h/mL
- Cmax [2, 11]: 24.6 ± 9.9 ng/mL
- Tmax [2, 11]: 12 h
- AUC0–t, fold higher in CCl4-induced rats than in control rats ([2]; intravenous injection of 10 mg/kg EZE): 4.3 fold
- AUC0–t, fold higher in CCl4-induced rats than in control rats [2, 12]: 2.5 fold
- share in plasma relative to the main circulating component EZE-Ph [2, 12]: 11%
- Autosampler stability (4°C, 24 h), RE ([3]; HQC (800/2400/800 ng/ml)): 9.0%
- Post-extraction stability (room temperature 3 h), RE ([3]; HQC (800/2400/800 ng/ml)): 5.2%
- Autosampler stability (4°C, 24 h), RE ([3]; LQC (3.00/9.00/3.00 ng/ml)): 7.9%
- Post-extraction stability (room temperature 3 h), RE ([3]; LQC (3.00/9.00/3.00 ng/ml)): 8.9%
- stability in rat plasma under the test conditions ([3]; LQC and HQC samples, short-term, post-extraction, auto-sampler, three freeze/thaw cycles): stable
- Freeze-thaw stability (−20°C, three cycles), RE ([3]; HQC (800/2400/800 ng/ml)): 2.0%
- Short-term stability (room temperature 3 h), RE ([3]; HQC (800/2400/800 ng/ml)): -3.6%
- Freeze-thaw stability (−20°C, three cycles), RE ([3]; LQC (3.00/9.00/3.00 ng/ml)): -0.1%
- Short-term stability (room temperature 3 h), RE ([3]; LQC (EZE/EZE-Ph/EZE-Hy 3.00/9.00/3.00 ng/ml)): -6.9%
- stability in blood ([3]; room temperature for 2 h): stable

Molecule: CC(CCC(=O)NCC(=O)O)C1CCC2C3C(O)CC4CC(O)CCC4(C)C3CCC12C (stereo not drawn) [GCDCA, glycochenodeoxycholic acid]
- IC50 (OATP1B3): 15.1 µM

Molecule: C[C@H](CCC(=O)NCC(=O)O)[C@H]1CC[C@H]2[C@@H]3[C@@H](O)C[C@@H]4C[C@H](O)CC[C@]4(C)[C@H]3CC[C@]12C [GUDCA, glycoursodeoxycholic acid]
- IC50 (OATP1B3): 46.1 µM

Molecule: C[C@H](CCC(=O)NCCS(=O)(=O)O)[C@H]1CC[C@H]2[C@@H]3[C@@H](O)C[C@@H]4C[C@H](O)CC[C@]4(C)[C@H]3CC[C@]12C [TUDCA, tauroursodeoxycholic acid]
- IC50 (OATP1B3): 26 µM

Molecule: C[C@H](CCC(=O)O)[C@H]1CC[C@H]2[C@@H]3[C@@H](O)C[C@@H]4C[C@H](O)CC[C@]4(C)[C@H]3CC[C@]12C [UDCA, ursodeoxycholic acid]
- IC50 (OATP1B3): 25.5 µM

Molecule: CO[C@H]1/C=C/O[C@@]2(C)Oc3c(C)c(O)c4c(O)c(c(/C=N/N5CCN(C)CC5)c(O)c4c3C2=O)NC(=O)/C(C)=C\C=C\[C@H](C)[C@H](O)[C@@H](C)[C@@H](O)[C@@H](C)[C@H](OC(C)=O)[C@@H]1C [rifampicin, reference compound]
- EZE-Ph uptake by rat hepatocytes in the presence of inhibitor (rat primary hepatocytes): 12.0%
- uptake of estradiol-17β-glucuronide in OATP1B3-expressing HEK293 cells in the presence of inhibitor (OATP1B3; inhibitor 200 μM, substrate estradiol-17β-glucuronide): 3.89%

B1: OATP1B1 (Homo sapiens) (protein)
chain: MDQNQHLNKTAEAQPSENKKTRYCNGLKMFLAALSLSFIAKTLGAIIMKSSIIHIERRFEISSSLVGFIDGSFEIGNLLVIVFVSYFGSKLHRPKLIGIGCFIMGIGGVLTALPHFFMGYYRYSKETNINSSENSTSTLSTCLINQILSLNRASPEIVGKGCLKESGSYMWIYVFMGNMLRGIGETPIVPLGLSYIDDFAKEGHSSLYLGILNAIAMIGPIIGFTLGSLFSKMYVDIGYVDLSTIRITPTDSRWVGAWWLNFLVSGLFSIISSIPFFFLPQTPNKPQKERKASLSLHVLETNDEKDQTANLTNQGKNITKNVTGFFQSFKSILTNPLYVMFVLLTLLQVSSYIGAFTYVFKYVEQQYGQPSSKANILLGVITIPIFASGMFLGGYIIKKFKLNTVGIAKFSCFTAVMSLSFYLLYFFILCENKSVAGLTMTYDGNNPVTSHRDVPLSYCNSDCNCDESQWEPVCGNNGITYISPCLAGCKSSSGNKKPIVFYNCSCLEVTGLQNRNYSAHLGECPRDDACTRKFYFFVAIQVLNLFFSALGGTSHVMLIVKIVQPELKSLALGFHSMVIRALGGILAPIYFGALIDTTCIKWSTNNCGTRGSCRTYNSTSFSRVYLGLSSMLRVSSLVLYIILIYAMKKKYQEKDINASENGSVMDEANLESLNKNKHFVPSAGADSETHC
notes: host or cells: HEK293
- Km [4]: 91.5 µM
- Vmax [4]: 5.17e-05 µmol/min/mg
- Vmax/Km [4]: 0.56 µL/min/mg

B2: OATP2B1 (Homo sapiens) (protein)
chain: MGPRIGPAGEVPQVPDKETKATMGTENTPGGKASPDPQDVRPSVFHNIKLFVLCHSLLQLAQLMISGYLKSSISTVEKRFGLSSQTSGLLASFNEVGNTALIVFVSYFGSRVHRPRMIGYGAILVALAGLLMTLPHFISEPYRYDNTSPEDMPQDFKASLCLPTTSAPASAPSNGNCSSYTETQHLSVVGIMFVAQTLLGVGGVPIQPFGISYIDDFAHNSNSPLYLGILFAVTMMGPGLAFGLGSLMLRLYVDINQMPEGGISLTIKDPRWVGAWWLGFLIAAGAVALAAIPYFFFPKEMPKEKRELQFRRKVLAVTDSPARKGKDSPSKQSPGESTKKQDGLVQIAPNLTVIQFIKVFPRVLLQTLRHPIFLLVVLSQVCLSSMAAGMATFLPKFLERQFSITASYANLLIGCLSFPSVIVGIVVGGVLVKRLHLGPVGCGALCLLGMLLCLFFSLPLFFIGCSSHQIAGITHQTSAHPGLELSPSCMEACSCPLDGFNPVCDPSTRVEYITPCHAGCSSWVVQDALDNSQVFYTNCSCVVEGNPVLAGSCDSTCSHLVVPFLLLVSLGSALACLTHTPSFMLILRGVKKEDKTLAVGIQFMFLRILAWMPSPVIHGSAIDTTCVHWALSCGRRAVCRYYNNDLLRNRFIGLQFFFKTGSVICFALVLAVLRQQDKEARTKESRSSPAVEQQLLVSGPGKKPEDSRV
notes: host or cells: HEK293
- Km [5]: 119 µM
- Vmax [5]: 6.69e-05 µmol/min/mg
- Vmax/Km [5]: 0.56 µL/min/mg
